Assay: xn = mol fraction of the nth substance listed
Details: Liquid, Vibrating tube method

CCCCCCCC [octane] + CCCCCC
Details | mass density [kg/m3]
352.91 K, 7000 kPa, x2 = 0.1654 | 656.4
352.91 K, 7000 kPa, x2 = 0.9308 | 619.06
352.91 K, 8000 kPa, x2 = 0.1654 | 657.6
352.91 K, 8000 kPa, x2 = 0.9308 | 620.53
352.91 K, 9000 kPa, x2 = 0.1654 | 658.8
352.91 K, 9000 kPa, x2 = 0.9308 | 621.96
352.91 K, 10000 kPa, x2 = 0.1654 | 659.99
352.91 K, 10000 kPa, x2 = 0.9308 | 623.39
352.91 K, 11000 kPa, x2 = 0.1654 | 661.15
352.91 K, 11000 kPa, x2 = 0.9308 | 624.78
352.91 K, 12000 kPa, x2 = 0.1654 | 662.28
352.91 K, 12000 kPa, x2 = 0.9308 | 626.15
352.91 K, 13000 kPa, x2 = 0.1654 | 663.41
352.91 K, 13000 kPa, x2 = 0.9308 | 627.49
352.91 K, 14000 kPa, x2 = 0.1654 | 664.53
352.91 K, 14000 kPa, x2 = 0.9308 | 628.8
352.91 K, 15000 kPa, x2 = 0.1654 | 665.63
352.91 K, 15000 kPa, x2 = 0.9308 | 630.08
352.91 K, 16000 kPa, x2 = 0.1654 | 666.68
352.91 K, 16000 kPa, x2 = 0.9308 | 631.35
352.91 K, 17000 kPa, x2 = 0.1654 | 667.73
352.91 K, 17000 kPa, x2 = 0.9308 | 632.57
352.91 K, 18000 kPa, x2 = 0.1654 | 668.76
352.91 K, 18000 kPa, x2 = 0.9308 | 633.78
352.91 K, 19000 kPa, x2 = 0.1654 | 669.76
352.91 K, 19000 kPa, x2 = 0.9308 | 634.96
352.91 K, 20000 kPa, x2 = 0.1654 | 670.78
352.91 K, 20000 kPa, x2 = 0.9308 | 636.11
352.91 K, 21000 kPa, x2 = 0.1654 | 671.71
352.91 K, 21000 kPa, x2 = 0.9308 | 637.22
352.91 K, 22000 kPa, x2 = 0.1654 | 672.65
352.91 K, 22000 kPa, x2 = 0.9308 | 638.32
352.91 K, 23000 kPa, x2 = 0.1654 | 673.59
352.91 K, 23000 kPa, x2 = 0.9308 | 639.39
352.91 K, 24000 kPa, x2 = 0.1654 | 674.5
352.91 K, 24000 kPa, x2 = 0.9308 | 640.43
352.91 K, 25000 kPa, x2 = 0.1654 | 675.39
352.91 K, 25000 kPa, x2 = 0.9308 | 641.44
352.92 K, 1000 kPa, x2 = 0.7995 | 618.46
352.92 K, 2000 kPa, x2 = 0.7995 | 619.98
352.92 K, 3000 kPa, x2 = 0.7995 | 621.51
352.92 K, 4000 kPa, x2 = 0.7995 | 623
352.92 K, 5000 kPa, x2 = 0.7995 | 624.48
352.92 K, 6000 kPa, x2 = 0.7995 | 625.93
352.92 K, 7000 kPa, x2 = 0.7995 | 627.37
352.92 K, 8000 kPa, x2 = 0.7995 | 628.79
352.92 K, 9000 kPa, x2 = 0.7995 | 630.18
352.92 K, 10000 kPa, x2 = 0.7995 | 631.54
352.92 K, 11000 kPa, x2 = 0.7995 | 632.86
352.92 K, 12000 kPa, x2 = 0.7995 | 634.17
352.92 K, 13000 kPa, x2 = 0.7995 | 635.46
352.92 K, 14000 kPa, x2 = 0.7995 | 636.72
352.92 K, 15000 kPa, x2 = 0.7995 | 637.96
352.92 K, 16000 kPa, x2 = 0.7995 | 639.16
352.92 K, 17000 kPa, x2 = 0.7995 | 640.35
352.92 K, 18000 kPa, x2 = 0.7995 | 641.51
352.92 K, 19000 kPa, x2 = 0.7995 | 642.64
352.92 K, 20000 kPa, x2 = 0.7995 | 643.75
352.92 K, 21000 kPa, x2 = 0.7995 | 644.82
352.92 K, 22000 kPa, x2 = 0.7995 | 645.88
352.92 K, 23000 kPa, x2 = 0.7995 | 646.92
352.92 K, 24000 kPa, x2 = 0.7995 | 647.94
352.92 K, 25000 kPa, x2 = 0.7995 | 648.91
362.76 K, 1000 kPa, x2 = 0.5749 | 622.07
362.76 K, 2000 kPa, x2 = 0.5749 | 623.63
362.76 K, 3000 kPa, x2 = 0.5749 | 625.2
362.76 K, 4000 kPa, x2 = 0.5749 | 626.68
362.76 K, 5000 kPa, x2 = 0.5749 | 628.17
362.76 K, 6000 kPa, x2 = 0.5749 | 629.67
362.76 K, 7000 kPa, x2 = 0.5749 | 631.09
362.76 K, 8000 kPa, x2 = 0.5749 | 632.53
362.76 K, 9000 kPa, x2 = 0.5749 | 633.92
362.76 K, 10000 kPa, x2 = 0.5749 | 635.27
362.76 K, 11000 kPa, x2 = 0.5749 | 636.64
362.76 K, 12000 kPa, x2 = 0.5749 | 637.96
362.76 K, 13000 kPa, x2 = 0.5749 | 639.28
362.76 K, 14000 kPa, x2 = 0.5749 | 640.55
362.76 K, 15000 kPa, x2 = 0.5749 | 641.82
362.76 K, 16000 kPa, x2 = 0.5749 | 643.03
362.76 K, 17000 kPa, x2 = 0.5749 | 644.23
362.76 K, 18000 kPa, x2 = 0.5749 | 645.42
362.76 K, 19000 kPa, x2 = 0.5749 | 646.56
362.76 K, 20000 kPa, x2 = 0.5749 | 647.68
362.76 K, 21000 kPa, x2 = 0.5749 | 648.78
362.76 K, 22000 kPa, x2 = 0.5749 | 649.86
362.76 K, 23000 kPa, x2 = 0.5749 | 650.91
362.76 K, 24000 kPa, x2 = 0.5749 | 651.95
362.76 K, 25000 kPa, x2 = 0.5749 | 652.96
362.88 K, 1000 kPa, x2 = 0.1654 | 640.2
362.88 K, 1000 kPa, x2 = 0.2199 | 637.97
362.88 K, 2000 kPa, x2 = 0.1654 | 641.61
362.88 K, 2000 kPa, x2 = 0.2199 | 639.42
362.88 K, 3000 kPa, x2 = 0.1654 | 642.98
362.88 K, 3000 kPa, x2 = 0.2199 | 640.79

— the NIST ThermoML archive (doi:10.1021/je200721d)
